We go through five compounds from paper PMC2908602, “Placental transfer of the polybrominated diphenyl ethers BDE-47, BDE-99 and BDE-209 in a human placenta perfusion system: an experimental study” (Environmental Health, 2010).

Where two headings read alike, the source gives them in different places.

In data set [1] the test system is human placenta. Conditions: cited from earlier work.
Details of data set [2]: method as in PMID 11999784. Conditions: cited from earlier work.
The conditions of data set [3]: in vivo; cited from earlier work.
For data set [4], the system named is human placenta. The procedure:
The study was approved by the regional Ethics Committee (KF 01-145/03 + KF(11) 260063) and the Data Protection Agency. All mothers gave informed written consent. […] The placentas were injected with a Krebs Ringer buffer containing heparin (5000 IU/ml, 5 ml/l medium) to prevent any remaining blood in fetal vessels from coagulating. The perfusions were performed in a dual perfusion system as previously described. […] Next, the lobule containing the perfused cotyledon was cut from the placenta (9 cm diameter) and placed in the perfusion chamber. The maternal circulation was connected by blunt cannulation of the intervillous space surrounding the perfused cotyledon. The perfusion media (100 mL each in fetal and maternal reservoirs) were circulated by peristaltic pumps and consisted of Krebs Ringer Buffer containing heparin (5000 IU/mL, Copenhagen University Hospital Pharmacy, 5 mL/L medium), glucose (0.6 g/100 mL), Pen-Strep (1% Substrate department standard solution, Panum Institute Copenhagen) and physiological levels of Human Serum Albumin (20% solution, CSL Behring Gmbh, dialysed in Krebs Ringer Buffer, maternal reservoir: 30 g/L; fetal reservoir: 40 g/L) and gassed with 95% O2/5% CO2 and 95% N2/5% CO2 in the maternal and fetal reservoirs, respectively. […] After at least 30 minutes of pre-perfusion to stabilise temperature and oxygen content, BDE-47, BDE-99 and BDE-209 (Cambridge Isotopes Laboratories, 1 μg/mL in ethanol, 100 μL added; final concentration of 1 ng/mL) and the positive control substance antipyrine dissolved in H2O (Aldrich-Chemie, Germany; final concentration of 100 μg/mL) were added to the maternal reservoir. The applied concentrations of PBDEs were a compromise between achieving final levels relatively close to in vivo levels and having a detection frequency close to 100%. […] The perfusions were run for four hours, and 6 mL were sampled at t = 0 from the maternal circulation and from both reservoirs before addition of the compounds and at 2, 30, 60, 130, 190 and 240 minutes after addition of the compounds. The sampled volume was not replaced.
The pH (7.2-7.4), glucose and lactate concentrations (glucose > 6 mM), and O2 tension in the maternal perfusion medium (30-35 kPa), in the fetal perfusion medium (10-15 kPa), and in the fetal venous outflow (15-20 kPa) were measured every 30 minutes using an ABL5 blood gas analyser (Radiometer, Denmark). Adjustments were made using 1 M HCl or 1 M NaOH to adjust pH, glucose solution (2,61 g/L) and increasing or decreasing the rate of 95% N2/5% CO2 gassing in the fetal perfusate or 95% O2/5% CO2 gassing in the maternal perfusate to adjust pO2 after each measurement.
In addition to the perfusion samples, the three PBDE congeners were analysed in umbilical cord blood and in the placental tissue before and after the perfusion. Samples of umbilical cord blood were taken if possible and processed to collect plasma. Subsamples of the placental tissue were taken before perfusion as well as from the cotyledon and the surrounding tissue after perfusion. Prior to placenta perfusions, adsorption tests had been performed: The chambers and tubes were perfused without placental tissue to investigate loss of substance during the perfusion, for instance through adsorption to the perfusion system.

On the set-up of data set [5]: species or system human. Conditions: in vivo. On the procedure:
Total lipid content in placental tissue was determined according to Smedes (1999), while enzymatic lipid determination of triglyceride and cholesterol was performed on the plasma samples and total lipid was calculated as described by Covaci et al (2006).

Regarding `Cn1c(=O)c2c(ncn2C)n(C)c1=O` [caffeine], in the data set with human placenta [1] (not told), the “indicative permeability coefficient (IPC)” value is 1.03 h⁻¹.
In the case of `c1ccc2c(c1)cc1ccc3cccc4ccc2c1c34` [benzo(a)pyrene], the “indicative permeability coefficient (IPC)” value with human placenta [1] (human placenta perfusion) is 0.08 h⁻¹.
For `Brc1c(Br)c(Br)c(Oc2c(Br)c(Br)c(Br)c(Br)c2Br)c(Br)c1Br` [BDE-209, decabromo diphenyl ether], in data set [2], the logKow is at least 10. Moreover, in data set [3], the “median level in placental tissue” value is 1.14 ng/g lw; the “observed blood levels, Denmark” value was ~ 0.014 ng/ml; the “observed blood levels, elsewhere” value was 0.009 to 0.15 ng/mL. In addition, in the data set with human placenta [4] (4 h, 1 ng/mL), the “Cotyledon (perfused tissue) level” value was 107.8 (64.2-159.5) ng/g lw, the “Surrounding placental tissue level” value is reported as 22.2 (16.3-31.8) ng/g lw, the “concentration in perfused cotyledon relative to background” value was found to be 20 times and the “concentration in surrounding tissue relative to background” value is reported as 100 times. Also, in the data set with human placenta [4] (4 h, 1 ng/mL), the “mass balance: amount unaccounted for (system adsorption)” value is listed as -8%, the “mass balance: fraction of added amount in cotyledon” value turned out to be 24%, the “mass balance: fraction of added amount in fetal circulation” value is 0% and the “mass balance: fraction of added amount in maternal circulation” value was determined as 27%. In addition, in the data set on human placenta [4] (4 h, 1 ng/mL), the “mass balance: fraction of added amount in surrounding placental tissue” value was 19% and the “mass balance: fraction of added amount removed by sampling” value worked out at 38%. Moreover, in data set [5], the “Non-perfused placental tissue level” value was “< LOQ” and the “Umbilical cord plasma level” value is listed as “< LOQ”.
`Cc1cc(=O)n(-c2ccccc2)n1C` [antipyrine, reference compound]: the “FM-ratio at 190 min” value in the data set on human placenta [4] (190 min, 100 µg/mL) is 1.04. For the same compound, the “indicative permeability coefficient (IPC)” value in the data set on human placenta [1] was 0.94 h⁻¹.
Turning to `O=C(O)CNCP(=O)(O)O` [glyphosate], the “indicative permeability coefficient (IPC)” value with human placenta [1] (perfused in the same human placenta model) is 0.11 h⁻¹.
